Source: patent US20260262643A1, “HERBICIDAL BENZOXAZINES” (FMC CORPORATION, priority 2022, published 2026)

How the values were obtained:
[1] = test system: barnyardgrass; test: Test A preemergence; format: in vivo, Echinochloa crusgalli; settings: visual injury after 10 days, 0 to 100 scale, 0 is no effect, 100 is complete control
Method in brief: (§1)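 Greenhouse pot test, 10 days. Compound (non-phytotoxic solvent, surfactant) sprayed on soil at seeding or on seedlings at one- to two-leaf stage. Visual injury rated 0–100 against untreated plants.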

[2] = test system: blackgrass; test: Test A preemergence; format: in vivo, Alopecurus myosuroides; settings: 0 to 100 scale
Method in brief: as §1

[3] = test system: corn; test: Test A preemergence; format: in vivo, Zea mays; settings: 0 to 100 scale
Method in brief: as §1

[4] = test system: foxtail, giant; test: Test A preemergence; format: in vivo, Setaria faberi; settings: 0 to 100 scale
Method in brief: as §1

[5] = test system: kochia; test: Test A preemergence; format: in vivo, Bassia scoparia; settings: 0 to 100 scale
Method in brief: as §1

[6] = test system: oat, wild; test: Test A preemergence; format: in vivo, Avena fatua; settings: 0 to 100 scale
Method in brief: as §1

[7] = test system: pigweed, palmer; test: Test A preemergence; format: in vivo, Amaranthus palmeri; settings: 0 to 100 scale
Method in brief: as §1

[8] = test system: ragweed; test: Test A preemergence; format: in vivo, Ambrosia artemisiifolia; settings: 0 to 100 scale
Method in brief: as §1

[9] = test system: ryegrass, Italian; test: Test A preemergence; format: in vivo, Lolium multiflorum; settings: 0 to 100 scale
Method in brief: as §1

[10] = test system: soybean; test: Test A preemergence; format: in vivo, Glycine max; settings: 0 to 100 scale
Method in brief: as §1

[11] = test system: wheat; test: Test A preemergence; format: in vivo, Triticum aestivum; settings: 0 to 100 scale
Method in brief: as §1

[12] = test system: barnyardgrass; test: Test A postemergence; format: in vivo, Echinochloa crusgalli; settings: postemergence, 10 days
Method in brief: as §1

[13] = test system: blackgrass; test: Test A postemergence; format: in vivo, Alopecurus myosuroides; settings: postemergence, 10 days
Method in brief: as §1

[14] = test system: corn; test: Test A postemergence; format: in vivo, Zea mays; settings: postemergence, 10 days
Method in brief: as §1

[15] = test system: foxtail, giant; test: Test A postemergence; format: in vivo, Setaria faberi; settings: postemergence, 10 days
Method in brief: as §1

[16] = test system: kochia; test: Test A postemergence; format: in vivo, Bassia scoparia; settings: postemergence, 10 days
Method in brief: as §1

[17] = test system: oat, wild; test: Test A postemergence; format: in vivo, Avena fatua; settings: postemergence, 10 days
Method in brief: as §1

[18] = test system: pigweed, palmer; test: Test A postemergence; format: in vivo, Amaranthus palmeri; settings: postemergence, 10 days
Method in brief: as §1

[19] = test system: ragweed; test: Test A postemergence; format: in vivo, Ambrosia artemisiifolia; settings: postemergence, 10 days
Method in brief: as §1

[20] = test system: ryegrass, Italian; test: Test A postemergence; format: in vivo, Lolium multiflorum; settings: postemergence, 10 days
Method in brief: as §1

[21] = test system: soybean; test: Test A postemergence; format: in vivo, Glycine max; settings: postemergence, 10 days
Method in brief: as §1

[22] = test system: wheat; test: Test A postemergence; format: in vivo, Triticum aestivum; settings: postemergence, 10 days
Method in brief: as §1

[23] = test system: galium; test: Test A postemergence; format: in vivo, Galium aparine; settings: postemergence, 10 days
Method in brief: as §1

[24] = test system: horseweed; test: Test A postemergence; format: in vivo, Erigeron canadensis; settings: postemergence, 10 days
Method in brief: as §1

[25] = test system: barnyardgrass; test: Test B flooded paddy test; format: in vivo, Echinochloa crus-galli; settings: 250 g ai/ha, Flood, 13 days, 0 to 100 scale (0 no effect, 100 complete control)
Method in brief: (§2)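 Percent weed or crop control, judged by eye on a 0–100 scale 13 days post-treatment, reflects compound added to a 3 cm flood maintained over 2-leaf plants in the greenhouse. Missing entries are marked with a dash.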

[26] = test system: ducksalad; test: Test B flooded paddy test; format: in vivo, Heteranthera limosa; settings: 250 g ai/ha, Flood, 13 days, 0 to 100 scale (0 no effect, 100 complete control)
Method in brief: as §2

[27] = test system: rice; test: Test B flooded paddy test; format: in vivo, Oryza sativa; settings: 250 g ai/ha, Flood, 13 days, 0 to 100 scale (0 no effect, 100 complete control)
Method in brief: as §2

[28] = test system: sedge, umbrella; test: Test B flooded paddy test; format: in vivo, Cyperus difformis; settings: 250 g ai/ha, Flood, 13 days, 0 to 100 scale (0 no effect, 100 complete control)
Method in brief: as §2

[29] = 500 g ai/ha, visual injury after 10 days, 0 is no effect, 100 is complete control
[30] = 125 g ai/ha, 0 to 100 scale, 0 no effect, 100 complete control
[31] = 500 g ai/ha, visual injury, 0 to 100 scale (0 no effect, 100 complete control)

`CC(C)c1ncn(-c2ccc(OC(F)F)c(C(=O)N3C[C@H](C)Oc4c(Cl)cccc43)c2)n1` [Compound 143] was tested. Which “Plant response rating, Barnyardgrass” value ([1]; 125 g ai/ha) did it give?
Its value is 90.

What about the “Plant response rating, Barnyardgrass” value ([1]; 500 g ai/ha) of the same compound?
The value was 100.

What about the “Plant response rating, Blackgrass” value ([2]; 125 g ai/ha) of the same compound?
Its value is 40.

What about the “Plant response rating, Blackgrass” value [2, 29] of the same compound?
The value was 70.

And the “Plant response rating, Corn” value ([3]; 125 g ai/ha)?
Its value is 10.

What about the “Plant response rating, Corn” value [3, 29] of the same compound?
Its value is 40.

What about the “Plant response rating, Foxtail, Giant” value ([4]; 125 g ai/ha) of the same compound?
Its value is 100.

And the “Plant response rating, Foxtail, Giant” value [4, 29]?
Its value is 100.

What about the “Plant response rating, Kochia” value ([5]; 125 g ai/ha) of the same compound?
The value was 80.

And the “Plant response rating, Kochia” value [5, 29]?
Its value is 100.

What about the “Plant response rating, Oat, Wild” value ([6]; 125 g ai/ha) of the same compound?
The value was 60.

What about the “Plant response rating, Oat, Wild” value [6, 29] of the same compound?
Its value is 90.

And the “Plant response rating, Pigweed, Palmer” value ([7]; 125 g ai/ha)?
The value was 100.

What about the “Plant response rating, Pigweed, Palmer” value [7, 29] of the same compound?
The value was 100.

What about the “Plant response rating, Ragweed” value ([8]; 125 g ai/ha) of the same compound?
The value was 30.

What about the “Plant response rating, Ragweed” value [8, 29] of the same compound?
Its value is 90.

And the “Plant response rating, Ryegrass, Italian” value ([9]; 125 g ai/ha)?
Its value is 80.

What about the “Plant response rating, Ryegrass, Italian” value [9, 29] of the same compound?
Its value is 90.

What about the “Plant response rating, Soybean” value ([10]; 125 g ai/ha) of the same compound?
The value was 100.

And the “Plant response rating, Soybean” value [10, 29]?
Its value is 100.

And the “Plant response rating, Wheat” value ([11]; 125 g ai/ha)?
Its value is 90.

What about the “Plant response rating, Wheat” value [11, 29] of the same compound?
Its value is 50.

What about the “Barnyardgrass plant response rating” value [12, 30] of the same compound?
Its value is 50.

And the “Plant response rating, Barnyardgrass” value [12, 31]?
The value was 90.

And the “Blackgrass plant response rating” value [13, 30]?
The value was 80.

And the “Plant response rating, Blackgrass” value [13, 31]?
The value was 90.

What about the “Corn plant response rating” value [14, 30] of the same compound?
The value was 90.

And the “Plant response rating, Corn” value [14, 31]?
Its value is 90.

And the “Foxtail, Giant plant response rating” value [15, 30]?
Its value is 90.

What about the “Plant response rating, Foxtail, Giant” value [15, 31] of the same compound?
The value was 90.

And the “Kochia plant response rating” value [16, 30]?
The value was 90.

And the “Plant response rating, Kochia” value [16, 31]?
The value was 90.

And the “Oat, Wild plant response rating” value [17, 30]?
The value was 10.

What about the “Plant response rating, Oat, Wild” value [17, 31] of the same compound?
Its value is 70.

What about the “Pigweed, Palmer plant response rating” value [18, 30] of the same compound?
The value was 60.

And the “Plant response rating, Pigweed, Palmer” value [18, 31]?
The value was 80.

And the “Ragweed plant response rating” value [19, 30]?
Its value is 40.

And the “Plant response rating, Ragweed” value [19, 31]?
Its value is 70.

And the “Ryegrass, Italian plant response rating” value [20, 30]?
Its value is 50.

And the “Plant response rating, Ryegrass, Italian” value [20, 31]?
Its value is 80.

And the “Soybean plant response rating” value [21, 30]?
The value was 100.

What about the “Plant response rating, Soybean” value [21, 31] of the same compound?
Its value is 100.

What about the “Wheat plant response rating” value [22, 30] of the same compound?
Its value is 30.

What about the “Plant response rating, Wheat” value [22, 31] of the same compound?
The value was 40.

And the “Galium plant response rating” value [23, 30]?
The value was 100.

What about the “Plant response rating, Galium” value [23, 31] of the same compound?
The value was 100.

And the “Horseweed plant response rating” value [24, 30]?
Its value is 20.

What about the “Plant response rating, Horseweed” value [24, 31] of the same compound?
Its value is 50.

And the “Plant response rating, Barnyardgrass” value [25]?
The value was 40.

And the “Plant response rating, Ducksalad” value [26]?
Its value is 65.

And the “Plant response rating, Rice” value [27]?
The value was 0.

What about the “Plant response rating, Sedge, Umbrella” value [28] of the same compound?
The value was 98.
